Values quoted from earlier work, collected in US20210388441A1, “PREDICTING CHRONIC ALLOGRAFT INJURY THROUGH ISCHEMIA-INDUCED DNA METHYLATION” (VIB VZW, priority 2017, published 2021).

Test system: macrophage infiltration in kidneys
Conditions: through a decrease of macrophage infiltration in for instance kidneys

In the case of `CC(=O)C(C)CCC(=O)O` (stereo not shown) [ERG240], the inflammation is given as “reduced inflammation”.
